The series is described as follows: Solubility in 0.1 M phosphate buffer at pH 7. It counts as physicochemical. Particulars: 0.1 M phosphate buffer at pH 7, 10 mg/mL final peptide concentration, shaking 2 hours at room temperature, peptides as TFA-salts; measured sample pH 6.5-7.0; read-out: Solubility. As for the experimental part: Peptides (as TFA-salts) were weighed out in a filter unit (Mini-UniPrep Syringeless Filter 0.45 μm, Whatman PVDF), and 0.1 M phosphate buffer at pH 7 was added to achieve 10 mg/mL final peptide concentration. The peptides were dissolved by shaking the filter units horizontally at 600 rpm for 2 hours at room temperature. Samples were then filtered to remove any insoluble particles. Controls were prepared by weighing out the corresponding peptide solid material and dissolving it in an appropriate vehicle (e.g. ACN:H2O) to a final concentration of 1 mg/mL. Both, the control and sample were analyzed by reversed phase chromatography. The area under the peak of the sample was compared to the control and the solubility was calculated based on that ratio. The pH was measured and recorded for each sample.

Structures are written as SMILES.

A word on the solubility: it is how much of the substance goes into solution per volume. Turning to `CC[C@H](C)[C@H](NC(=O)[C@H](Cc1ccccc1)NC(=O)[C@H](C)NC(=O)C(C)(C)NC(=O)[C@H](CCC(N)=O)NC(=O)[C@H](C)NC(=O)[C@H](CCC(N)=O)NC(=O)[C@H](CCCCN)NC(=O)[C@H](CC(=O)O)NC(=O)[C@H](CC(C)C)NC(=O)C(C)(C)NC(=O)[C@@H](NC(=O)[C@H](CO)NC(=O)[C@H](Cc1ccc(O)cc1)NC(=O)[C@H](CC(=O)O)NC(=O)[C@H](CO)NC(=O)[C@@H](NC(=O)[C@H](Cc1ccccc1)NC(=O)[C@@H](NC(=O)CNC(=O)[C@H](CCC(=O)O)NC(=O)C(C)(C)NC(=O)[C@@H](N)Cc1ccc(O)cc1)[C@@H](C)O)[C@@H](C)O)[C@@H](C)CC)C(=O)N[C@@H](CCCNC(=N)N)C(=O)N[C@@H](Cc1c[nH]cn1)C(=O)N[C@@H](CC(C)C)C(=O)N[C@H](C(=O)N[C@@H](CC(N)=O)C(=O)N[C@@H](CCCCNC(=O)[C@@H](N)CCCCNC(=O)CC[C@H](NC(=O)CC[C@H](NC(=O)CC[C@H](NC(=O)CC[C@H](NC(=O)CC[C@H](NC(=O)CC[C@H](NC(=O)CCCCCCCCCCCCCCCCC(=O)O)C(=O)O)C(=O)O)C(=O)O)C(=O)O)C(=O)O)C(=O)O)C(=O)NC(C)(C)C(=O)N[C@H](C(=O)N[C@@H](CCCNC(=N)N)C(=O)N[C@@H](CCC(N)=O)C(=O)N[C@@H](CCCNC(=N)N)C(=O)N[C@@H](Cc1ccc(O)cc1)C(N)=O)[C@@H](C)O)[C@@H](C)CC` [Compound 102, Y-Aib-E-G-T-F-T-S-D-Y-S-I-Aib-L-D-K-Q-A-Q-Aib-A-F-I-R-H-L-I-N-K(1,3)-Aib-T-R-Q-R-Y-NH2.C18DA-gGlu-gGlu-gGlu-gGlu-gGlu-gGlu-eLys(1,2)], the solubility was determined as 9100 µg/mL.
In the case of `CC[C@H](C)[C@H](NC(=O)[C@H](CC(C)C)NC(=O)[C@H](Cc1c[nH]cn1)NC(=O)[C@H](CCCNC(=N)N)NC(=O)[C@@H](NC(=O)[C@H](Cc1ccccc1)NC(=O)[C@H](C)NC(=O)C(C)(C)NC(=O)[C@H](CCC(N)=O)NC(=O)[C@H](C)NC(=O)[C@H](CCC(N)=O)NC(=O)[C@H](CCC(=O)O)NC(=O)[C@H](CC(=O)O)NC(=O)[C@H](CC(C)C)NC(=O)C(C)(C)NC(=O)[C@@H](NC(=O)[C@H](CO)NC(=O)[C@H](Cc1ccc(O)cc1)NC(=O)[C@H](CC(=O)O)NC(=O)[C@H](CO)NC(=O)[C@@H](NC(=O)[C@H](Cc1ccccc1)NC(=O)[C@@H](NC(=O)CNC(=O)[C@H](CCC(=O)O)NC(=O)C(C)(C)NC(=O)[C@@H](N)Cc1ccc(O)cc1)[C@@H](C)O)[C@@H](C)O)[C@@H](C)CC)C(C)C)C(=O)N[C@@H](CC(N)=O)C(=O)N[C@@H](CCCCNC(=O)[C@@H](N)CCCCNC(=O)CC[C@H](NC(=O)CC[C@H](NC(=O)CC[C@H](NC(=O)CC[C@H](NC(=O)CC[C@H](NC(=O)CCCCCCCCCCCCCCCCC(=O)O)C(=O)O)C(=O)O)C(=O)O)C(=O)O)C(=O)O)C(=O)NC(C)(C)C(=O)N[C@H](C(=O)N[C@@H](CCCNC(=N)N)C(=O)N[C@@H](CCC(N)=O)C(=O)N[C@@H](CCCNC(=N)N)C(=O)N[C@@H](Cc1ccc(O)cc1)C(N)=O)[C@@H](C)O` [Compound 108, Y-Aib-E-G-T-F-T-S-D-Y-S-I-Aib-L-D-E-Q-A-Q-Aib-A-F-V-R-H-L-I-N-K(1,3)-Aib-T-R-Q-R-Y-NH2.C18DA-gGlu-gGlu-gGlu-gGlu-gGlu-eLys(1,2)], the solubility was found to be 9200 µg/mL.
As for `CC[C@H](C)[C@H](NC(=O)[C@H](CC(C)C)NC(=O)[C@H](Cc1c[nH]cn1)NC(=O)[C@H](CCCNC(=N)N)NC(=O)[C@@H](NC(=O)[C@H](Cc1ccccc1)NC(=O)[C@H](C)NC(=O)C(C)(C)NC(=O)[C@H](CCC(N)=O)NC(=O)[C@H](C)NC(=O)[C@H](CCC(N)=O)NC(=O)[C@H](CCCCN)NC(=O)[C@H](CCC(=O)O)NC(=O)[C@H](CC(C)C)NC(=O)C(C)(C)NC(=O)[C@@H](NC(=O)[C@H](CO)NC(=O)[C@H](Cc1ccc(O)cc1)NC(=O)[C@H](CC(=O)O)NC(=O)[C@H](CO)NC(=O)[C@@H](NC(=O)[C@H](Cc1ccccc1)NC(=O)[C@@H](NC(=O)CNC(=O)[C@H](CCC(=O)O)NC(=O)C(C)(C)NC(=O)[C@@H](N)Cc1ccc(O)cc1)[C@@H](C)O)[C@@H](C)O)[C@@H](C)CC)C(C)C)C(=O)N[C@@H](CC(N)=O)C(=O)N[C@@H](CCCCNC(=O)COCCOCCNC(=O)CC[C@H](NC(=O)CC[C@H](NC(=O)CC[C@H](NC(=O)CC[C@H](NC(=O)CCCCCCCCCCCCCCCCC(=O)O)C(=O)O)C(=O)O)C(=O)O)C(=O)O)C(=O)NC(C)(C)C(=O)N[C@H](C(=O)N[C@@H](CCCNC(=N)N)C(=O)N[C@@H](CCC(N)=O)C(=O)N[C@@H](CCCNC(=N)N)C(=O)N[C@@H](Cc1ccc(O)cc1)C(N)=O)[C@@H](C)O` [Compound 110, Y-Aib-E-G-T-F-T-S-D-Y-S-I-Aib-L-E-K-Q-A-Q-Aib-A-F-V-R-H-L-I-N-K(1,3)-Aib-T-R-Q-R-Y-NH2.C18DA-gGlu-gGlu-gGlu-gGlu-OEG(1,2)], the figure is 800 µg/mL.
Regarding `CC[C@H](C)[C@H](NC(=O)[C@H](CC(C)C)NC(=O)[C@H](Cc1c[nH]cn1)NC(=O)[C@H](CCCNC(=N)N)NC(=O)[C@@H](NC(=O)[C@H](Cc1ccccc1)NC(=O)[C@H](C)NC(=O)C(C)(C)NC(=O)[C@H](C)NC(=O)[C@H](C)NC(=O)[C@H](CCC(N)=O)NC(=O)[C@H](CCCCN)NC(=O)[C@H](CCC(=O)O)NC(=O)[C@H](CC(C)C)NC(=O)C(C)(C)NC(=O)[C@@H](NC(=O)[C@H](CO)NC(=O)[C@H](Cc1ccc(O)cc1)NC(=O)[C@H](CC(=O)O)NC(=O)[C@H](CO)NC(=O)[C@@H](NC(=O)[C@H](Cc1ccccc1)NC(=O)[C@@H](NC(=O)CNC(=O)[C@H](CCC(=O)O)NC(=O)C(C)(C)NC(=O)[C@@H](N)Cc1ccc(O)cc1)[C@@H](C)O)[C@@H](C)O)[C@@H](C)CC)C(C)C)C(=O)N[C@@H](CC(N)=O)C(=O)N[C@@H](CCCCNC(=O)[C@@H](N)CCCCNC(=O)CC[C@H](NC(=O)CC[C@H](NC(=O)CC[C@H](NC(=O)CC[C@H](NC(=O)CC[C@H](NC(=O)CC[C@H](NC(=O)CCCCCCCCCCCCCCCCC(=O)O)C(=O)O)C(=O)O)C(=O)O)C(=O)O)C(=O)O)C(=O)O)C(=O)NC(C)(C)C(=O)N[C@H](C(=O)N[C@@H](CCCNC(=N)N)C(=O)N[C@@H](CCC(N)=O)C(=O)N[C@@H](CCCNC(=N)N)C(=O)N[C@@H](Cc1ccc(O)cc1)C(N)=O)[C@@H](C)O` [Compound 111, Y-Aib-E-G-T-F-T-S-D-Y-S-I-Aib-L-E-K-Q-A-A-Aib-A-F-V-R-H-L-I-N-K(1,3)-Aib-T-R-Q-R-Y-NH2.C18DA-gGlu-gGlu-gGlu-gGlu-gGlu-gGlu-eLys(1,2)], the solubility came to 4000 µg/mL.

The values above are taken from US20250382344A1, “Soluble GLP1/GIP/NPY2 Receptor Triple Agonists” (Boehringer Ingelheim International GmH, priority 2024, published 2025).
